Laboratory results reported in ChEMBL document CHEMBL1151592, “Synthesis of new 3,4-disubstituted pyrrolidines as thromboxane A2/prostaglandin H2 (TP) receptor antagonists” (Bioorg Med Chem Lett, 1996).

Columns and labels:
Cavia porcellus = test: Compound was evaluated in vivo for inhibition of U 46619 induced increase in tracheal pressure of guinea pig.; assay type: functional; details: Trachea, read-out: ID50 (the source's name)
Homo sapiens = species on record: Homo sapiens; test: Compound was evaluated for anti-platelet activity by measuring its inhibitory effect on human platelet rich plasma (PRP) aggregated with U-46,619.; assay type: functional
[1] = biological target: Thromboxane A2 receptor (Cavia porcellus); test: Antagonistic activity against TP-receptor by inhibition of U 46619-induced contraction of isolated guinea pig trachea; details: read-out: pA2 (converted)

Row | IC50 (Homo sapiens) [nM] | Kb [1] [nM] | Compound | ED50 (Cavia porcellus) [mg/kg]
1 | 600 |  | O=C(O)CC/C=C\C[C@@H]1CN(S(=O)(=O)c2cccc3ccccc23)C[C@@H]1c1ccccc1O | 0.0075
2 | 4700 | 1 | O=C(O)CC/C=C\C[C@@H]1CN(S(=O)(=O)c2ccc(Cl)cc2)C[C@@H]1c1ccccc1O | 0.03
3 | 3600 | 6.31 | O=C(O)CCC/C=C\C[C@@H]1CN(S(=O)(=O)c2cccc3ccccc23)C[C@@H]1c1ccccc1O | 0.08
4 |  | 251 | O=C(O)CC/C=C\C[C@@H]1CN(Cc2ccccc2)C[C@@H]1c1ccccc1O | 0.17
5 | 3000 |  | O=C(O)CC/C=C\C[C@@H]1CN(S(=O)(=O)c2cccc3cccnc23)C[C@@H]1c1ccccc1O | 0.025

The next lines start with the compound.

Row | Compound | IC50 (Homo sapiens) [nM] | Kb [1] [nM] | ED50 (Cavia porcellus) [mg/kg]
6 | CC(C)C(=O)N1C[C@@H](C/C=C\CCC(=O)O)[C@@H](c2ccccc2O)C1 |  |  | 0.11
7 | O=C(O)CC/C=C\C[C@@H]1CN(Cc2cccnc2)C[C@@H]1c1ccccc1O |  |  | 1
8 | O=C(O)CC/C=C\C[C@@H]1CN(S(=O)(=O)c2cccc3cnccc23)C[C@@H]1c1ccccc1O | 1300 |  | 0.011
9 | O=C(O)CC/C=C\C[C@@H]1CO[C@H](c2ccccc2Cl)O[C@@H]1c1ccccc1O |  |  | 0.0007
10 | O=C(O)CC/C=C\C[C@@H]1CN(S(=O)(=O)c2cccc3cnccc23)C[C@H]1c1ccccc1O |  |  | 0.056
11 | CCCCCCC(=O)N1C[C@@H](C/C=C\CCC(=O)O)[C@@H](c2ccccc2O)C1 |  |  | 0.43
12 | O=C(O)CC/C=C\C[C@@H]1CN(S(=O)(=O)c2ccc(Cl)cc2)C[C@H]1c1ccccc1O |  | 12.6 | 0.12
